Laboratory results taken from patent US20250026716A1, “SYNTHESIS PROCESS OF FATTY ACYL TAURINE SALT” (ZHANGJIAGANG GREAT CHEMICAL CO., LTD., priority 2021, published 2025).

Legend:
[1] = test system: chicken embryo chorioallantoic membrane; test: Irritancy (stimulus) test, chicken embryo chorioallantoic membrane method
[2] = Foaming performance test (foam volume, mixing method); type: physicochemical; details: 2 g of sample, 150 mg/kg hard water to 500 mL, stirring 30 s at 1000 rpm
Protocol: For further comparison, foaming performance tests are conducted on products of Examples 12-13 and Comparative Examples 16-17, and the test results are shown in Table 12.

SMILES	Bleeding time [1]	IS value [1]	Foam volume [2]
CCCCCCCCCCCC(=O)NCCS(=O)(=O)O.[Na] [Example 2, sodium lauroyl taurine]	41.5	4.33	–
CCCCCCCCCCCC(=O)NCCS(=O)(=O)O.[Na] [Example 12, sodium lauroyl taurine]	–	–	1240 mL
CCCCCCCCCCCC(=O)NCCS(=O)(=O)O.[Na] [Comparative Example 16, sodium lauroyl taurine, reference compound]	–	–	860 mL
